Laboratory results reported in patent US20210220494A1, “COMPOSITIONS AND METHODS FOR TARGETED PARTICLE PENETRATION, DISTRIBUTION, AND RESPONSE IN MALIGNANT BRAIN TUMORS” (Memorial Sloan Kettering Cancer Center, priority 2016, published 2021).

What was measured:
NSCLC CNS metastases = settings: pulsatile high-dose, cited from earlier work
macrophages = settings: cited from earlier work
[1] = cited from earlier work
ECLC26 flank tumor = settings: ECLC26 flank tumors, multi-dose, caliper measurements
Protocol: Tumor volume was measured using caliper measurements of the maximal dimensions of the tumor daily.
Nude mice were implanted with 2 million ECLC26 cells. Mice bearing tumors were treated by i.v. of 200 μL saline or 15 μM Gef-NDC for 2 doses of Gavage with 15 mg/ml Gefitinib, 10 μL/g for 10 days.

C#Cc1cccc(Nc2ncnc3cc(OCCOC)c(OCCOC)cc23)c1 [erlotinib]
response of CNS metastases (NSCLC CNS metastases; 3 patients): the response is unpredictable, even at high dose
CNS penetration (NSCLC CNS metastases; patients): improves CNS penetration for NSCLC metastases

CNC(=O)c1cc(Oc2ccc3nc(N[C@@H]4CCCC[C@H]4O)sc3c2)ccn1 [BLZ945]
expression of M2 polarization markers in TAMs (macrophages): decreased expression of M2 polarization markers
phagocytic activity of macrophages (macrophages): upregulated

COc1cc2ncnc(Nc3ccc(F)c(Cl)c3)c2cc1OCCCN1CCOCC1 [Gefitinib, gefitinib]
protein binding [1]: highly protein bound
tumor volume over time (ECLC26 flank tumor): steady decrease in tumor volume
